Legend:
[1] = Toxicity in sheep erythrocytes assessed as hemolysis; format: cell-based, Ovis aries, Erythrocyte; settings: for HD100: erythrocyte; for HC50: sheep erythrocytes, read-out: HD50 (the source's name)
[2] = Toxicity in sheep erythrocytes assessed as hemolysis at >500 ug/mL; format: cell-based, Ovis aries, Erythrocyte; settings: read-out: Activity

Row | SMILES | HD100 [1] [µM] | HC50 [1] [µM] | hemolysis [2] [%]
1 | COC(=O)[C@H]1O[C@@H](O[C@H]2[C@@H](O)C[C@]3(C)[C@H]4CC=C5[C@@H]6CC(C)(C)CC[C@]6(C(=O)O)CC[C@@]5(C)[C@]4(C)CC[C@H]3C2(C)C)[C@H](O)[C@@H](O[C@@H]2O[C@H](CO)[C@H](O)[C@H](O)[C@H]2O)[C@@H]1O | 303 | 157 | –
2 | CC1(C)CC[C@]2(C(=O)O)CC[C@]3(C)C(=CC[C@@H]4[C@@]5(C)CC[C@H](O[C@@H]6O[C@H](C(=O)O)[C@@H](O)[C@H](O)[C@H]6O)[C@@](C)(CO)C5CC[C@]43C)[C@@H]2C1 (stereo not given in full) | 116 | 93 | –
3 | CC1(C)CC[C@]2(C(=O)O)CC[C@]3(C)C(=CC[C@@H]4[C@@]5(C)CC[C@H](O[C@@H]6O[C@H](C(=O)O)[C@@H](O)[C@H](O[C@@H]7O[C@H](CO)[C@H](O)[C@H](O)[C@H]7O)[C@H]6O)[C@@](C)(CO)[C@@H]5CC[C@]43C)[C@@H]2C1 | 93 | 45 | –
4 | CC1(C)CC[C@]2(C(=O)O[C@@H]3O[C@H](CO)[C@@H](O)[C@H](O)[C@H]3O)CC[C@]3(C)C(=CC[C@@H]4[C@@]5(C)C[C@H](O)[C@H](O[C@@H]6O[C@H](CO)[C@@H](O)[C@H](O[C@@H]7O[C@H](CO)[C@H](O)[C@H](O)[C@H]7O)[C@H]6O)[C@@](C)(CO)[C@@H]5CC[C@]43C)[C@@H]2C1 | > 513 | – | 10
5 | CC1(C)CC[C@]2(C(=O)O[C@@H]3O[C@H](CO)[C@@H](O)[C@H](O)[C@H]3O)CC[C@]3(C)C(=CC[C@@H]4[C@@]5(C)CC[C@H](O[C@@H]6O[C@H](C(=O)O)[C@@H](O)[C@H](O[C@@H]7O[C@H](CO)[C@H](O)[C@H](O)[C@H]7O)[C@H]6O)[C@@](C)(CO)[C@@H]5CC[C@]43C)[C@@H]2C1 | 514 | 309 | –
6 | CC1(C)CC[C@]2(C(=O)O)CC[C@]3(C)C(=CC[C@@H]4[C@@]5(C)C[C@H](O)[C@H](O[C@@H]6O[C@H](C(=O)O)[C@@H](O)[C@H](O[C@@H]7O[C@H](CO)[C@H](O)[C@H](O)[C@H]7O)[C@H]6O)[C@@](C)(CO)[C@@H]5CC[C@]43C)[C@@H]2C1 | 121 | 66 | –
7 | CC1(C)CC[C@]2(C(=O)O)CC[C@]3(C)C(=CC[C@@H]4[C@@]5(C)C[C@H](O)[C@H](O[C@@H]6O[C@H](CO)[C@@H](O)[C@H](O[C@@H]7O[C@H](CO)[C@H](O)[C@H](O)[C@H]7O)[C@H]6O)[C@@](C)(CO)[C@@H]5CC[C@]43C)[C@@H]2C1 | 24 | 18 | –
8 | CC1(C)CC[C@]2(C(=O)O)CC[C@]3(C)C(=CC[C@@H]4[C@@]5(C)CC[C@H](O[C@@H]6O[C@H](CO)[C@@H](O)[C@H](O[C@@H]7O[C@H](CO)[C@H](O)[C@H](O)[C@H]7O)[C@H]6O)[C@@](C)(CO)[C@@H]5CC[C@]43C)[C@@H]2C1 | 94 | 56 | –
9 | CC1(C)CC[C@]2(C(=O)O)CC[C@]3(C)C(=CC[C@@H]4[C@@]5(C)C[C@H](O)[C@H](O[C@@H]6O[C@H](C(=O)O)[C@@H](O)[C@H](O[C@@H]7O[C@H](CO)[C@H](O)[C@H](O)[C@H]7O)[C@H]6O)C(C)(C)[C@@H]5CC[C@]43C)[C@@H]2C1 | 49 | 32 | –
10 | CC1(C)CC[C@]2(C(=O)O)CC[C@]3(C)C(=CC[C@@H]4[C@@]5(C)CC[C@H](O[C@@H]6O[C@H](C(=O)O)[C@@H](O)[C@H](O[C@@H]7O[C@H](CO)[C@H](O)[C@H](O)[C@H]7O)[C@H]6O)C(C)(C)[C@@H]5CC[C@]43C)[C@@H]2C1 [GLYCOSIDE D] | 31 | 19 | –

From ChEMBL document CHEMBL1157244, “Triterpenoid saponins from the fruits of Caryocar glabrum” (J Nat Prod, 2006)
